Here are results for six compounds from US11377466B2, “Analogs of the natural product icariin” (Whitehead Institute for Biomedical Research, priority 2018, dated 2022).

For assay [1], the target named is T1, human PDE5 (Homo sapiens, UniProt O76074).
T1 construct: host or cells: COS-7 cells (lysate), transfected with human PDE5
The conditions noted are these: reported by Dell'Agli et al.; COS-7 lysate expressing human PDE5; cited from earlier work.

Assay [2] concerns the target T2, purified recombinant human PDE5 (Homo sapiens, UniProt O76074).
T2 construct: purchased Abcam AB125581
Put plainly: In vitro PDE5 inhibition assay (GMP production from cGMP, LC-MS). Format: biochemical. Particulars: for IC50: cGMP at 1/10 of Km. On the procedure: To evaluate the nine icariin analogs, the IC50 of each analog, icariin, and sildenafil were measured in an in vitro PDE5 inhibition assay, which measures GMP production from cGMP by purified recombinant human PDE5. Table 1 summarizes the IC50 values obtained for the nine icariin analogs tested. Fold improved potency in Table 1 refers to fold change in IC50 compared to icariin.
[…]. […] PDE5 (purified recombinant human PDE5 purchased from Abcam, Product No. AB125581) was added to start the reaction. The reaction was at room temperature until approximately 10-15% of cGMP in uninhibited control reactions was consumed. Keeping cGMP concentration low and staying within a linear reaction ensured that the reaction remained within Michaelis-Menten model assumptions and that the IC50 could be approximated to the inhibition constant or Ki (as substrate concentration decreases, IC50 value approaches Ki value). The reaction was stopped with the addition of 0.1 M hydrochloric acid. The amount of GMP produced was measured by LC-MS.

In another assay the test system is SKMEL-5 cells. Put plainly: Cytotoxicity measured by resazurin, SKMEL-5. Format: cell-based. Particulars: Homo sapiens, SK-MEL-5, 0-10 μM. The protocol: (§1) A general feature of compounds with promise as viable therapeutics is a lack of toxicity to human cells. To test the icariin analogs for this feature, each analog was assayed against a panel of five human cell lines for cytotoxicity. The five human cell lines represent various tissue types—normalized, untransformed epithelial cells derived from fetal foreskin, neuroblastoma, melanoma, prostate, and lung. A Western blot against PDE5 confirmed that all five cell lines express PDE5 protein (data not shown). Compounds 2-7 were assayed at concentrations ranging from 0-10 μM, ensuring that all compounds remained soluble. […]

The subject of the next assay is BJHTERT+ cells. Put plainly: Cytotoxicity measured by resazurin, BJHTERT+ (BjH+). Format: cell-based. The conditions noted are these: Homo sapiens, 0-10 μM. The protocol: as §1
A general note: The colour change of resazurin is a common sign of viable cells or microbes.

The subject of the next assay is H187 cells. Put plainly: Cytotoxicity measured by resazurin, H187. The format is cell-based. Particulars: Homo sapiens, NCI-H187, 0-10 μM. The protocol: as §1
Assay [3] has as its system panel of five human cell lines. Put plainly: Cytotoxicity against a panel of five human cell lines (resazurin). Format: cell-based. Particulars: 2 and 4: two out of five cell lines, 6: three out of five cell lines, 0-10 μM, read-out: IC50 of toxicity in the affected cell lines. The protocol: as §1
The target of assay [4] is T1, human PDE5. The conditions noted are these: competitive inhibitor of human PDE5; previous work; cited from earlier work.
Assay [5] has as its system cavernous smooth muscle cells. The conditions noted are these: cavernous smooth muscle cells isolated from icariin-treated mice; cited from earlier work.
The mark [6] stands for this setting: purified recombinant human PDE5.

Structures are written as SMILES. Where two headings read alike, the source gives them in different places.

The term IC50 denotes the point on the concentration scale where inhibition reaches its midpoint. Turning to `COc1ccc(-c2oc3c(CC=C(C)C)c(O)cc(O)c3c(=O)c2O[C@@H]2O[C@H](C)[C@@H](O)[C@H](O)[C@@H]2O)cc1` [Compound 1, icariside II], the IC50 at human PDE5 [1] is 160 nM.
For orientation: Ki means a measure of affinity in units of concentration, obtained from inhibition or displacement. `COc1ccc(-c2oc3c(CC=C(C)C)c(O[C@@H]4O[C@H](CO)[C@@H](O)[C@H](O)[C@H]4O)cc(O)c3c(=O)c2OCCO)cc1` [Compound 3]: in assay [2] (enzyme kinetics, purified recombinant human PDE5), the Ki was determined as 36 ± 5 nM. Besides, the IC50 in assay [2] (setting [6]) amounted to 83 ± 10 nM.
For `COc1ccc(-c2oc3c(CC=C(C)C)c(O[C@@H]4O[C@H](CO)[C@@H](O)[C@H](O)[C@H]4O)cc(O)c3c(=O)c2OCC(C)O)cc1` (stereo partly shown) [Compound 5], the IC50 in assay [2] (setting [6]) came out at 500 ± 100 nM.
Regarding `COc1ccc(-c2oc3c(CC=C(C)C)c(O)cc(O)c3c(=O)c2OCCO)cc1` [Compound 6], the IC50 in the assay on SKMEL-5 cells is 4.45 µM; in the assay on BJHTERT+ cells, 6.73 µM; in the assay on H187 cells it was 5.92 µM; in assay [3] it was 4 to 7 µM.
In the case of `COc1ccc(-c2oc3c(CC=C(C)C)c(O)cc(O)c3c(=O)c2O)cc1` [Compound 9, icaritin], the IC50 in assay [2] (setting [6]) worked out at 1800 ± 800 nM.
With `COc1ccc(-c2oc3c(CC=C(C)C)c(O[C@@H]4O[C@H](CO)[C@@H](O)[C@H](O)[C@H]4O)cc(O)c3c(=O)c2O[C@@H]2O[C@@H](C)[C@H](O)[C@@H](O)[C@H]2O)cc1` [icariin], the Field improved potency in assay [2] (fold change in IC50 compared to icariin) is reported as 1. Moreover, the IC50 in assay [2] (setting [6]) was 6000 ± 1000 nM; on human PDE5 [4], 1 to 6 µM. In addition, the cGMP levels result in assay [5] is given as “increase cGMP levels”.
